Test results reported in patent US11739074B2, “Ras inhibitors” (Revolution Medicines, Inc., priority 2019, dated 2023).
Read-outs that look alike come from different tables or passages of the source.

Columns and labels:
AsPC-1 (K-Ras G12D) [1] = experiment: CellTiter-Glo cell viability assay, AsPC-1; assay type: cell-based; details: Homo sapiens, ASPC1, 120 h
Protocol: Determination of Cell Viability in RAS Mutant Cancer Cell Lines
Protocol: CellTiter-Glo® Cell Viability Assay
Note—The following protocol describes a procedure for monitoring cell viability of K-Ras mutant cancer cell lines in response to a compound of the invention. Other RAS isoforms may be employed, though the number of cells to be seeded will vary based on cell line used.
Test compounds (132.5 nL) were directly dispensed into the assay plates containing cells. […] On day 5, assay plates and their contents were equilibrated to room temperature for approximately 30 minutes. […] Luminescence was measured using the PerkinElmer Enspire. Data were normalized by the following: (Sample signal/Avg. DMSO)*100. The data were fit using a four-parameter logistic fit.

AsPC-1 (K-Ras G12D) [2] = experiment: Potency assay: pERK in AsPC-1 cells; assay type: cell-based; details: Homo sapiens
[3] = AsPC-1, K-Ras G12D, 5-day treatment, read-out: AsPC-1 Cell Viability IC50
[4] = ASPC1, AsPC-1 cells, K-Ras G12D, read-out: pERK EC50 (AsPC-1 KRAS G12D)
[5] = read-out: AsPC-1 Cell Viability IC50, AsPC-1, K-Ras G12D, 5-day treatment
[6] = ASPC1, read-out: pERK EC50 (AsPC-1 KRAS G12D)

Structure (SMILES) | IC50 (AsPC-1 (K-Ras G12D) [1]; [3]) | EC50 (AsPC-1 (K-Ras G12D) [2]; [4]) | IC50 (AsPC-1 (K-Ras G12D) [1]; [5]) | EC50 (AsPC-1 (K-Ras G12D) [2]; [6])
CCn1c(-c2cccnc2[C@H](C)OC)c2c3cc(ccc31)-c1cc(O)cc(c1)C[C@H](NC(=O)[C@H](C1CCCC1)N(C)C(=O)CN(C)C(=O)[C@@H]1N[C@@H]1C1(C#N)CC1)C(=O)N1CCC[C@H](N1)C(=O)OCC(C)(C)C2 (single isomer, unassigned) [Compound 308] | 1 to 10 µM | < 5 µM | – | –
CCn1c(-c2cccnc2[C@H](C)OC)c2c3cc(ccc31)-c1cc(O)cc(c1)C[C@H](NC(=O)[C@H](C(C)C)N(C)C(=O)[C@H]1CC[C@@H](C)N1C(=O)[C@H]1CN1)C(=O)N1CCC[C@H](N1)C(=O)OCC(C)(C)C2 [Compound 154] | – | – | 1 to 10 µM | < 5 µM
CCn1c(-c2cccnc2[C@H](C)OC)c2c3cc(ccc31)-c1csc(n1)C[C@H](NC(=O)[C@H](C(C)C)N(C)C(=O)N1CC[C@H](N(C)C(=O)[C@@H]3CN3)C1)C(=O)N1CCC[C@H](N1)C(=O)OCC(C)(C)C2 [Compound 229] | 1 to 10 µM | < 5 µM | – | –
CCn1c(-c2cccnc2[C@H](C)OC)c2c3cc(ccc31)-c1cc(O)cc(c1)C[C@H](NC(=O)[C@H](C(C)C)N(C)C(=O)N1CCN(C(=O)[C@@H]3CN3)CC1=O)C(=O)N1CCC[C@H](N1)C(=O)OCC(C)(C)C2 [Compound 205] | > 10 µM | < 5 µM | – | –
CCn1c(-c2cccnc2[C@H](C)OC)c2c3cc(ccc31)-c1cc(O)cc(c1)C[C@H](NC(=O)[C@H](C(C)C)N(C)C(=O)c1ccc(NC(=O)[C@@H]3CN3)cn1)C(=O)N1CCC[C@H](N1)C(=O)OCC(C)(C)C2 [Compound 187] | 1 to 10 µM | < 5 µM | – | –
CCn1c(-c2cccnc2[C@H](C)OC)c2c3cc(ccc31)-c1cc(O)cc(c1)C[C@H](NC(=O)[C@H](C(C)C)N(C)C(=O)CC1CN(C(=O)[C@@H]3CN3)C1)C(=O)N1CCC[C@H](N1)C(=O)OCC(C)(C)C2 [Compound 178] | > 10 µM | < 5 µM | – | –
CCn1c(-c2cccnc2[C@H](C)OC)c2c3cc(ccc31)-c1cc(O)cc(c1)C[C@H](NC(=O)[C@H](C(C)C)N(C)C(=O)[C@H]1CCN1C(=O)[C@@H]1CN1)C(=O)N1CCC[C@H](N1)C(=O)OCC(C)(C)C2 [Compound 157] | 1 to 10 µM | < 5 µM | – | –
CCn1c(-c2cccnc2[C@H](C)OC)c2c3cc(ccc31)-c1cc(O)cc(c1)C[C@H](NC(=O)[C@H](C(C)C)N1CC[C@@]3(CCN(C(=O)[C@H]4CN4)C3)C1=O)C(=O)N1CCC[C@H](N1)C(=O)OCC(C)(C)C2 [Compound 149] | 1 to 10 µM | < 5 µM | – | –
CCn1c(-c2cccnc2[C@H](C)OC)c2c3cc(ccc31)-c1cc(O)cc(c1)C[C@H](NC(=O)[C@H](C(C)C)N(C)C(=O)CN(C)C(=O)[C@H]1CN1CCCN1CCCC1=O)C(=O)N1CCC[C@H](N1)C(=O)OCC(C)(C)C2 (stereo partly drawn) [Example 268, (2R)—N-(2-(((2S)-1-(((6^3S,4S)-1^1-ethyl-2^5-hydroxy-1^2-(2-((S)-1-methoxyethyl)pyridin-3-yl)-10,10-dimethyl-5,7-dioxo-6^1,6^2,6^3,6^4,6^5,6^6-hexahydro-1^1H-8-oxa-1(5,3)-indola-6(1,3)-pyridazina-2(1,3)-benzenacycloundecaphane-4-yl)amino)-3-methyl-1-oxobutan-2-yl)(methyl)amino)-2-oxoethyl)-N-methyl-1-(3-(2-oxopyrrolidin-1-yl)propyl)aziridine-2-carboxamide] | – | – | 1 to 10 µM | < 5 µM
CCn1c(-c2cccnc2[C@H](C)OC)c2c3cc(ccc31)-c1cc(O)cc(c1)C[C@H](NC(=O)[C@H](C(C)C)N1CC[C@@]3(CCN(C[C@@H]4CN4)C3)C1=O)C(=O)N1CCC[C@H](N1)C(=O)OCC(C)(C)C2 [Compound 138] | > 10 µM | < 5 µM | – | –
CCn1c(-c2cccnc2[C@H](C)OC)c2c3cc(ccc31)-c1cc(O)cc(c1)C[C@H](NC(=O)[C@H](C(C)C)N(C)C(=O)N1CCCN(C(=O)[C@@H]3CN3)CC1)C(=O)N1CCC[C@H](N1)C(=O)OCC(C)(C)C2 [Compound 173] | 1 to 10 µM | < 5 µM | – | –
CCn1c(-c2cccnc2[C@H](C)OC)c2c3cc(ccc31)-c1cc(O)cc(c1)C[C@H](NC(=O)[C@H](C(C)C)N(C)C(=O)[C@H]1CCCCN(C(=O)[C@H]3CN3)C1)C(=O)N1CCC[C@H](N1)C(=O)OCC(C)(C)C2 [Compound 247] | 1 to 10 µM | < 5 µM | – | –
CCn1c(-c2cccnc2[C@H](C)OC)c2c3cc(ccc31)-c1cc(O)cc(c1)C[C@H](NC(=O)[C@H](C(C)C)N(C)C(=O)N1CC[C@H](N(C)C(=O)[C@H]3CN3)C1)C(=O)N1CCC[C@H](N1)C(=O)OCC(C)(C)C2 [Compound 254] | > 10 µM | < 5 µM | – | –
CCn1c(-c2cccnc2[C@H](C)OC)c2c3cc(ccc31)-c1cc(O)cc(c1)C[C@H](NC(=O)[C@H](C(C)C)N(C)C(=O)[C@H]1C[C@H](NC(=O)[C@@H]3CN3)C1)C(=O)N1CCC[C@H](N1)C(=O)OCC(C)(C)C2 [Compound 167] | 1 to 10 µM | < 5 µM | – | –
CCn1c(-c2cccnc2[C@H](C)OC)c2c3cc(ccc31)-c1cc(O)cc(c1)C[C@H](NC(=O)[C@H](C(C)C)N(C)C(=O)C13CC(CN1C(=O)[C@@H]1CN1)C3)C(=O)N1CCC[C@H](N1)C(=O)OCC(C)(C)C2 [Compound 163] | 1 to 10 µM | < 5 µM | – | –
CCn1c(-c2cccnc2[C@H](C)OC)c2c3cc(ccc31)-c1cc(O)cc(c1)C[C@H](NC(=O)[C@H](C(C)C)N(C)C(=O)[C@@H]1CCCN(C(=O)[C@@H]3CN3)C1)C(=O)N1CCC[C@H](N1)C(=O)OCC(C)(C)C2 [Compound 238] | 1 to 10 µM | < 5 µM | – | –
CCn1c(-c2cccnc2[C@H](C)OC)c2c3cc(ccc31)-c1cc(O)cc(c1)C[C@H](NC(=O)[C@H](C(C)C)N(C)C(=O)[C@H]1CCN(S(=O)(=O)[C@H]3CN3C)C1)C(=O)N1CCC[C@H](N1)C(=O)OCC(C)(C)C2 (single isomer, unassigned) [Compound 57] | 1 to 10 µM | < 5 µM | – | –
CCn1c(-c2cccnc2[C@H](C)OC)c2c3cc(ccc31)-c1cc(O)cc(c1)C[C@H](NC(=O)[C@H](C(C)C)N(C)C(=O)N1CC[C@H](N(C)C(=O)[C@@H]3CN3)C1)C(=O)N1CCC[C@H](N1)C(=O)OCC(C)(C)C2 [Compound 255] | 1 to 10 µM | < 5 µM | – | –
CCn1c(-c2cnccc2COC)c2c3cc(ccc31)-c1cccc(c1)C[C@H](NC(=O)[C@H](C(C)C)N(C)C(=O)CCN=C=NC1(COC)CC1)C(=O)N1CCC[C@H](N1)C(=O)OCC(C)(C)C2 [72 A and B] | 1 to 10 µM | < 5 µM | – | –
CCn1c(-c2cccnc2[C@H](C)OC)c2c3cc(ccc31)-c1cc(O)cc(c1)C[C@H](NC(=O)[C@H](C(C)C)N(C)C(=O)[C@]13C[C@H]1CCN3C(=O)[C@@H]1CN1)C(=O)N1CCC[C@H](N1)C(=O)OCC(C)(C)C2 [Compound 166] | 1 to 10 µM | < 5 µM | – | –
CCn1c(-c2cccnc2[C@H](C)OC)c2c3cc(ccc31)-c1cc(O)cc(c1)C[C@H](NC(=O)[C@H](C(C)C)N(C)C(=O)[C@H]1C[C@H](NC(=O)[C@H]3CN3)C1)C(=O)N1CCC[C@H](N1)C(=O)OCC(C)(C)C2 [Compound 182] | > 10 µM | < 5 µM | – | –
CCn1c(-c2cccnc2[C@H](C)OC)c2c3cc(ccc31)-c1cc(O)cc(c1)C[C@H](NC(=O)[C@H](C(C)C)N(C)C(=O)[C@@H]1CCN(C(=O)[C@@H]3CN3)C1)C(=O)N1CCC[C@H](N1)C(=O)OCC(C)(C)C2 [Compound 172] | 1 to 10 µM | < 5 µM | – | –
CCn1c(-c2cccnc2[C@H](C)OC)c2c3cc(ccc31)-c1cc(O)cc(c1)C[C@H](NC(=O)[C@H](C(C)C)N(C)C(=O)[C@@]1(F)CCN(C(=O)[C@@H]3CN3)C1)C(=O)N1CCC[C@H](N1)C(=O)OCC(C)(C)C2 [Compound 185] | 1 to 10 µM | < 5 µM | – | –
CCn1c(-c2cccnc2[C@H](C)OC)c2c3cc(ccc31)-c1cc(O)cc(c1)C[C@H](NC(=O)[C@H](C(C)C)N(C)C(=O)[C@]1(F)CCN(C(=O)[C@H]3CN3)C1)C(=O)N1CCC[C@H](N1)C(=O)OCC(C)(C)C2 [Compound 311] | 0.1 to 1 µM | < 5 µM | – | –
CCn1c(-c2cccnc2[C@H](C)OC)c2c3cc(ccc31)-c1cc(O)cc(c1)C[C@H](NC(=O)[C@H](C(C)C)N(C)C(=O)c1ncc(NC(=O)[C@H]3CN3)n1C)C(=O)N1CCC[C@H](N1)C(=O)OCC(C)(C)C2 [Compound 84] | 1 to 10 µM | < 5 µM | – | –
CCn1c(-c2cccnc2[C@H](C)OC)c2c3cc(ccc31)-c1cc(O)cc(c1)C[C@H](NC(=O)[C@H](C(C)C)N(C)C(=O)[C@H]1CCCN1C(=O)[C@@H]1CN1)C(=O)N1CCC[C@H](N1)C(=O)OCC(C)(C)C2 [Compound 151] | – | – | 1 to 10 µM | < 5 µM
CCn1c(-c2cccnc2[C@H](C)OC)c2c3cc(ccc31)-c1cc(O)cc(c1)C[C@H](NC(=O)[C@H](C(C)C)N(C)C(=O)[C@H]1C[C@H]3CC[C@@H](C1)N3C(=O)[C@H]1CN1)C(=O)N1CCC[C@H](N1)C(=O)OCC(C)(C)C2 [Compound 245] | 1 to 10 µM | < 5 µM | – | –
CCn1c(-c2cccnc2[C@H](C)OC)c2c3cc(ccc31)-c1cc(O)cc(c1)C[C@H](NC(=O)[C@H](C(C)C)N(C)C(=O)CN(C)C(=O)[C@@H]1CN1CCCN1CCCC1=O)C(=O)N1CCC[C@H](N1)C(=O)OCC(C)(C)C2 (some centres unmarked) [Compound 269] | – | – | 1 to 10 µM | < 5 µM
